Consider 56 molecules from the supplement of paper PMC12317010.

The nature of the data set: collision cross section in nitrogen (drift tube, single-field); higher = larger gas-phase ion size.
Where [1] appears, read: ion type: [M+Na], ion source: ESI, ion mode: Positive.
The mark [2] stands for this setting: ion type: [M+H], ion source: APCI, ion mode: Positive.
[3] abbreviates: ion type: [M-H], ion source: ESI, ion mode: Negative.
[4] abbreviates: ion type: [M+H], ion source: ESI, ion mode: Positive.
Setting [5] is: ion type: [M+], ion source: APCI, ion mode: Positive.
Where [6] appears, read: ion source: ESI, ion mode: Positive, ion type: [M]+ (permanent cation).

Molecules are shown by their SMILES. Where a name gives a salt, the structure may show the parent alone.
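Note: chemical standards at 10 µM analysed by drift tube IMS-QTOF MS in about 3.95 torr nitrogen, mean of duplicate injections differing ≤1%, mass error below 10 ppm.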

Consider `CCCCCCCCCCCCCCCCCC(=O)OCC(O)CO` (stereo not drawn) [Glycerol 1-monostearate], for which the “collision cross section in nitrogen” value under setting [1] is recorded as 201.2 Å².
With `O=C1C=CC(=O)N1c1cccc(N2C(=O)C=CC2=O)c1` [N,N'-1,3-Phenylenedimaleimide], the “collision cross section in nitrogen” value is, setting by setting: under setting [2], 157.9 Å²; under setting [3], 155 Å².
`CN1C(=O)CCS(=O)(=O)C1c1ccc(Cl)cc1` (stereo not drawn) [Chlormezanone]: the “collision cross section in nitrogen” value under setting [3] came out at 154.1 Å².
For `Cc1cc(C2CC2)nc(Nc2ccccc2)n1` [Cyprodinil], the “collision cross section in nitrogen” value by setting is: under setting [2], 153.1 Å²; under setting [4], 153.4 Å².
The like results for `COc1cnccc1O` [4-Hydroxy-3-methoxypyridine] were, in that order, 120.7 Å² and 121.8 Å².
For `CCNc1nc(Cl)nc(NC(C)C)n1` [Atrazine], the “collision cross section in nitrogen” value turned out to be 149 Å² under setting [2] and 149.5 Å² under setting [4].
Consider `CCC(=O)Nc1cccc(N)c1` [N-(3-Aminophenyl)propanamide], for which the “collision cross section in nitrogen” value is on record as 135.8 Å² under setting [2], 136.5 Å² under setting [4] and 138.7 Å² under setting [3].
For the molecule `COc1ccc(O)c(C(C)(C)C)c1` [2-tert-Butyl-4-methoxyphenol], the “collision cross section in nitrogen” value under setting [3] was found to be 142.3 Å².
Take `O=C(O)c1ccc(Cl)cc1C(=O)O` [Monosodium hydrogen 4-chlorophthalate]: under setting [3], the “collision cross section in nitrogen” value worked out at 132.5 Å².
For `CCOc1nc(F)cc2nc(S(=O)(=O)Nc3c(Cl)cccc3Cl)nn12` [Diclosulam], the “collision cross section in nitrogen” value is, setting by setting: under setting [2], 184.6 Å²; under setting [4], 183.5 Å²; under setting [1], 194 Å²; under setting [3], 183 Å².
Turning to `O=C1NC(=O)C(c2ccccc2)(c2ccccc2)N1` [Diphenylhydantoin sodium], the “collision cross section in nitrogen” value under setting [3] was 160.6 Å².
Turning to `O=C(Nc1ccc2c(O)c(N=Nc3ccc(N=Nc4ccc(S(=O)(=O)O)cc4)cc3)c(S(=O)(=O)O)cc2c1)c1ccccc1` [C.I. Direct Red 81 disodium salt], the “collision cross section in nitrogen” value reads like this: under setting [4], 276.7 Å²; under setting [3], 283.1 Å².
For `O=[N+]([O-])c1ccc(C=Cc2ccc([N+](=O)[O-])cc2S(=O)(=O)O)c(S(=O)(=O)O)c1`, the “collision cross section in nitrogen” value under setting [3] was determined as 182.4 Å².
Take `C/C=C/C=C/CO` [(2E,4E)-Hexa-2,4-dien-1-ol]: the “collision cross section in nitrogen” value under setting [5] is listed as 117.4 Å².
As to `Cn1c(-c2ccccc2)cc(-c2ccccc2)[n+]1C` [Difenzoquat metilsulfate], the “collision cross section in nitrogen” value reads like this: (ion source: APCI, ion mode: Positive, ion type: [M]+ (permanent cation)) 160 Å²; under setting [6], 160.8 Å².
Take `c1cnc2c(c1)ccc1cccnc12` [1,10-Phenanthroline hydrochloride hydrate]: the “collision cross section in nitrogen” value under setting [2] amounted to 131.8 Å², the “collision cross section in nitrogen” value under setting [4] is on record as 131.6 Å² and the “collision cross section in nitrogen” value under setting [1] turned out to be 145.7 Å².
For `CCCCCCCCCCCC(=O)N(CC)CC` [N,N-Diethyldodecanamide], the “collision cross section in nitrogen” value by setting is: under setting [2], 179.7 Å²; under setting [4], 179.1 Å²; under setting [1], 179.4 Å².
For the molecule `CN(C)CCC(c1ccc(Br)cc1)c1ccccn1` (stereo not drawn) [Brompheniramine hydrogen maleate], the “collision cross section in nitrogen” value is, setting by setting: under setting [2], 167.1 Å²; under setting [4], 167.8 Å².
In the case of `C=C(C)C(=O)OCCOCCOC(=O)C(=C)C` [Di(ethylene glycol) dimethacrylate], the “collision cross section in nitrogen” value under setting [1] was determined as 159.5 Å².
As to `COc1ccc(S(=O)(=O)N2C(=O)[C@@](c3ccccc3OC)(N3C[C@H](O)C[C@H]3C(=O)N(C)C)c3cc(Cl)ccc32)c(OC)c1` [Nelivaptan], the “collision cross section in nitrogen” value worked out at 231.8 Å² under setting [2], 230.6 Å² under setting [4], 233.3 Å² under setting [1] and 233.1 Å² under setting [3].
Consider `CC(C)(C)c1n[nH]c(=S)n(N)c1=O`, for which the “collision cross section in nitrogen” value under setting [3] is 142.1 Å².
In the case of `c1ccc2cc(Nc3ccc(Nc4ccc5ccccc5c4)cc3)ccc2c1` [N,N'-Di-2-naphthyl-p-phenylenediamine], the “collision cross section in nitrogen” value is, setting by setting: under setting [2], 201.9 Å²; under setting [3], 203.8 Å².
On to `CCNc1nc(NC(C)C)nc(SC)n1` [Ametryn], for which the “collision cross section in nitrogen” value reads like this: under setting [2], 155.2 Å²; under setting [4], 155.5 Å².
Turning to `Cc1ccc(S(=O)(=O)O)cc1` [Sodium 4-methylbenzenesulfonate], the “collision cross section in nitrogen” value under setting [3] is listed as 135.2 Å².
In the case of `CCCCCCCCc1ccc(S(=O)(=O)O)cc1` [Sodium 4-octylbenzenesulfonate], the “collision cross section in nitrogen” value under setting [3] is given as 173.9 Å².
Still for that read-out and setting: the result for `CCCC(CCC)C(=O)O` [Valproic acid] reads 137.1 Å².
Take `CCN(Cc1cccc(S(=O)(=O)O)c1)c1ccccc1` [3-((Ethylphenylamino)methyl)benzenesulfonic acid]: the “collision cross section in nitrogen” value by setting is: under setting [4], 161.1 Å²; under setting [1], 174.9 Å²; under setting [3], 175.5 Å².
For `O=C1c2ccccc2C(=O)C1c1ccc2ccccc2n1` [D & C Yellow 11], the “collision cross section in nitrogen” value runs as follows: under setting [4], 158.6 Å²; under setting [3], 163.8 Å².
For `CC(C)(C)N(NC(=O)c1ccc(Cl)cc1)C(=O)c1ccccc1` [Halofenozide], the “collision cross section in nitrogen” value worked out at 188.3 Å² under setting [1] and 178.2 Å² under setting [3].
Regarding `CC(C)(c1ccc(O)c(-c2ccccc2)c1)c1ccc(O)c(-c2ccccc2)c1` [BisOPP-A], the “collision cross section in nitrogen” value under setting [3] is given as 204 Å².
Same read-out and setting: to `Cc1c(C)c2c(c(C)c1O)CCC(C)(COc1ccc(CC3SC(=O)NC3=O)cc1)O2` (stereo not drawn) [Troglitazone] belongs 193.9 Å².
As to `CCCCCCCCOCCCN` [3-(Octyloxy)propan-1-amine], the “collision cross section in nitrogen” value turned out to be 156.9 Å² under setting [2] and 156.2 Å² under setting [4].
Turning to `Nc1cc(N)cc(C(=O)O)c1` [3,5-Diaminobenzoic acid], under setting [3], the “collision cross section in nitrogen” value turned out to be 136.6 Å².
In the case of `CCCCCc1cc(O)cc(O)c1` [Olivetol], the “collision cross section in nitrogen” value under setting [3] is given as 148.5 Å².
As for `c1ccc(CNc2ncnc3c2ncn3C2CCCCO2)cc1` (stereo not drawn) [N-Benzyl-9-(tetrahydro-2H-pyran-2-yl)adenine], the “collision cross section in nitrogen” value is, setting by setting: under setting [2], 177.9 Å²; under setting [4], 176.5 Å²; under setting [1], 189.3 Å²; under setting [3], 185.6 Å².
Regarding `CCOP(=S)(OCC)SCS(=O)(=O)C(C)(C)C` [Terbufos sulfone], under setting [1], the “collision cross section in nitrogen” value is listed as 171.3 Å².
For the molecule `N#CC(C#N)=NNc1cccc(Cl)c1` [Carbonyl cyanide chlorophenylhydrazone], under setting [4], the “collision cross section in nitrogen” value is reported as 142.8 Å².
In the case of `Cc1occc1C(=O)Nc1ccc(C(=O)N2CCC(F)(F)/C(=C\C(=O)N3CCC(N4CCCCC4)CC3)c3ccccc32)cc1` [YM 218], the “collision cross section in nitrogen” value turned out to be 240.1 Å² under setting [2], 239 Å² under setting [4] and 262.5 Å² under setting [1].
In the case of `COC(=O)C1(O)c2ccccc2-c2ccccc21` [Methyl 9-hydroxy-9H-fluorene-9-carboxylate], the “collision cross section in nitrogen” value under setting [3] was 150.1 Å².
`CCNc1nc(NC(C)(C)C)nc(OC)n1` [Terbumeton]: the “collision cross section in nitrogen” value runs as follows: under setting [2], 154.8 Å²; under setting [4], 154.9 Å²; under setting [1], 172.2 Å².
In the case of `CC(O)CN(CCN(CC(C)O)CC(C)O)CC(C)O` (stereo not drawn) [1,1′,1′′,1′′′-(Ethylenedinitrilo)tetrakis(2-propanol)], the “collision cross section in nitrogen” value by setting is: under setting [2], 166.8 Å²; under setting [4], 166.8 Å²; under setting [1], 168.6 Å²; under setting [3], 168.6 Å².
`CCC(C)(C)c1ccc(O)cc1` [4-(2-Methylbutan-2-yl)phenol]: the “collision cross section in nitrogen” value under setting [3] is given as 143.8 Å².
For the molecule `CCOP(=S)(OCC)SCn1nnc2ccccc2c1=O` [Azinphos-ethyl], the “collision cross section in nitrogen” value under setting [1] is reported as 177.9 Å².
`O=C1OC2(c3cc(Br)c(O)c(Br)c3Oc3c2cc(Br)c(O)c3Br)c2c(Cl)c(Cl)c(Cl)c(Cl)c21` [D&C Red 27]: under setting [3], the “collision cross section in nitrogen” value is 226.8 Å².
Regarding `O=C(O)COc1ccc2ccccc2c1` [2-Naphthoxyacetic acid], the “collision cross section in nitrogen” value under setting [3] is reported as 151.2 Å².
In the case of `CCCc1ccc(O)cc1` [4-Propylphenol], under setting [3], the “collision cross section in nitrogen” value is reported as 134.5 Å².
With `COCC(=O)N(c1c(C)cccc1C)[C@H](C)C(=O)OC` [Metalaxyl-M], the “collision cross section in nitrogen” value runs as follows: under setting [2], 160.5 Å²; under setting [4], 160 Å²; under setting [1], 168.8 Å².
Consider `CN(C)c1ccc(N=O)cc1` [N,N-Dimethyl-4-nitrosoaniline], for which the “collision cross section in nitrogen” value reads like this: under setting [2], 128.7 Å²; under setting [4], 128.4 Å².
Regarding `[O-][Cl+2]([O-])O` [Potassium chlorate], the “collision cross section in nitrogen” value under setting [3] was 104 Å².
Turning to `CS(=O)(=O)c1ccc([C@@H](C[C@H]2CCC(=O)C2)C(=O)Nc2cnccn2)cc1Cl` [Piragliatin], under setting [3], the “collision cross section in nitrogen” value came to 204.3 Å².
Take `COc1cc(-c2ccc(N)c(OC)c2)ccc1N` [C.I. Disperse Black 6 dihydrochloride]: the “collision cross section in nitrogen” value reads like this: under setting [2], 169.7 Å²; under setting [4], 169.9 Å²; under setting [5], 156.1 Å².
In the case of `c1ccc(CCCc2ccncc2)cc1` [4-(3-Phenylpropyl)pyridine], the “collision cross section in nitrogen” value was determined as 145.9 Å² under setting [2] and 146.1 Å² under setting [4].
`CCOP(=O)(SC(C)CC)N1CCSC1=O` (stereo not drawn) [Fosthiazate]: the “collision cross section in nitrogen” value under setting [1] is 168.2 Å².
Turning to `C[N+]1(C)CCCCC1` [1,1-Dimethylpiperidinium chloride], the “collision cross section in nitrogen” value under setting [6] stood at 121.2 Å².
As for `Oc1c(O)c(Cl)c(Cl)c(Cl)c1Cl` [Tetrachlorocatechol], the “collision cross section in nitrogen” value under setting [3] turned out to be 135.1 Å².
In the case of `CCCCCCOC(=O)CCCCC(=O)OCCCCCC` [Dihexyl hexanedioate], under setting [1], the “collision cross section in nitrogen” value was determined as 202.5 Å².
